# Test results: patent US10562912B2 (C&C Research Laboratories, priority 2013, dated 2020)
# Tests used:
# Type in all cases: cell-based
# STAT3 = molecular target: T1, STAT3 (Homo sapiens, UniProt P40763); test: STAT3 reporter gene assay (luciferase), LNCaP stable cell line (pSTAT3-TA-luc), IL-6 stimulation
# T1 construct: plasmid pSTAT3-TA-luc), which contains a stably operating STAT3 promoter; endogenous in cells
# Outline: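 Cytotoxicity was run on a duplicate plate with CellTiter-Glo, while the other plate gave luciferase read-outs from lysed LNCaP pSTAT3-TA-luc reporter cells. Cells were treated with graded compound concentrations plus IL-6 (10 ng/mL final) for 24–48 h in 3% DCC-FBS medium. Unstimulated and stimulated wells served as negative and positive controls.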
# AGS = test: Cell growth inhibition assay, stomach cancer cell line AGS; conditions: Homo sapiens; AGS stomach cancer cell line, 3,000 cells/well
# Protocol: The inhibitory effects of the compounds of the present invention against the growth of cancer cells were evaluated as shown below. The cancer cell lines including stomach cancer cell line (AGS), breast cancer cell lines (MDA-MB-231, MDA-MB-468, and BT-549), prostate cancer cell lines (LNCaP and DU-145), colon cancer cell line (HCT116), ovarian cancer cell line (SW626), liver cancer cell line (Hep3B), kidney cancer cell line (ACHN), lung cancer cell line (NCI-H23) and blood cancer cell lines (HEL92.1.7 and U266) were cultured under the protocol provided by each supplier. A medium supplemented with 10 ng/mL of IL-6 was used for LNCaP, a prostate cancer cell line, when treated with a drug. Each type of cells to be used in experiments were sub-cultured in a 96-well plate by counting the exact number of cells using Tali™ Image-based Cytometer (Life Technologies). In a 96-well plate, AGS, HCT116, and DU-145 were employed with 3,000 cells/well; NCI-H23, SW626, Hep3B, ACHN, BT-549, MDA-MB-231, HEL92.1.7, and U266 were employed with 5,000 cells/well; and LNCaP and MDA-MB-468 were employed with 10,000 cells/well. The cells were treated with the compounds listed in Examples which were diluted in various concentrations. Upon completion of the compounds treatment, AGS, HCT116, SW626, DU145, NCI-H23, Hep3B, ACHN, BT-549, LNCaP, HEL92.1.7, and U266 cells were cultured at 37° C. under 5% CO2 for from 72 to 96 hours, and MDA-MB-231 and MDA-MB-468 cells were cultured at 37° C. in air for from 72 to 96 hours. Subsequently, the cells were observed under microscope and drug precipitation and particular findings were investigated and recorded. And then, the 96-well plate was placed at room temperature for 30 minutes, added with 20 μL/well of CellTiter-Glo solution (Cat No. G7573, Promega) and shaken for 10 minutes, followed by being subjected to the measurement using PHERAstar™ microplate reader (BMG LABTECH) according to the supplier's general luminometer protocol. Wells where only culture liquid added without cell plating were used as a negative control, whereas wells where culture liquid containing 0.1% DMSO instead of the compounds listed in Examples were used as a positive control.
# LNCaP = test: Cell growth inhibition assay, prostate cancer cell line LNCaP (medium with 10 ng/mL IL-6); conditions: Homo sapiens, medium supplemented with 10 ng/mL of IL-6, 10,000 cells/well
# T1 sequence (P40763 whole entry): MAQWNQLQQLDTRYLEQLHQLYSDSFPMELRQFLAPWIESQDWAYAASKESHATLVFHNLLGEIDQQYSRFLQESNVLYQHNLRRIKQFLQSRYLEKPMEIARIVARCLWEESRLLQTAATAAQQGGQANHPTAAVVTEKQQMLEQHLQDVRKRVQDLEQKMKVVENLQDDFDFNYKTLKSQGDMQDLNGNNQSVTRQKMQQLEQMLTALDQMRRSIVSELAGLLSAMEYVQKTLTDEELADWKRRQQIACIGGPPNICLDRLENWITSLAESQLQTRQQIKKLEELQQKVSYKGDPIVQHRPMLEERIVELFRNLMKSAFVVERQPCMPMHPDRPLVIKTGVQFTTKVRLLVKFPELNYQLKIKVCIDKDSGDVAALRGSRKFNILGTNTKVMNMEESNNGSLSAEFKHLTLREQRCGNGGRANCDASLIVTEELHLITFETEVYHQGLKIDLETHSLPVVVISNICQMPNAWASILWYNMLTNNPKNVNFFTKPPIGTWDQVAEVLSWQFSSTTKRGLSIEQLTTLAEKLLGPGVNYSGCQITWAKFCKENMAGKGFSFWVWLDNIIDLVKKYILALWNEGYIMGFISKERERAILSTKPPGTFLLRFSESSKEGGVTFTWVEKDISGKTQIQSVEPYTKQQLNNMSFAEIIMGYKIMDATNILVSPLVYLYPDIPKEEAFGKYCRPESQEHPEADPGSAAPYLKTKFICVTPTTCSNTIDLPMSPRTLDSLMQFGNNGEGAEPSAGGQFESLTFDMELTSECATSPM
IC50 (STAT3),IC50 (AGS),IC50 (LNCaP),SMILES
> 10 µM,> 50 µM,> 10 µM,"O=C(Nc1cccc(-c2ccc(F)cc2F)c1)c1cc2ccc([N+](=O)[O-])cc2[nH]1 [Example 225, N-(2′,4′-difluoro-[1,1′-biphenyl]-3-yl)-6-nitro-1H-indole-2-carboxamide]"
6.3 µM,6.9 µM,> 10 µM,"O=C(Nc1cccc(-c2ccccc2C(F)(F)F)c1)c1cc2ccc([N+](=O)[O-])cc2[nH]1 [Example 226, 6-nitro-N-(2′-(trifluoromethyl)-[1,1′-biphenyl]-3-yl)-1H-indole-2-carboxamide]"
> 10 µM,30 µM,> 10 µM,"O=C(Nc1cccc(-c2ccccc2C(F)(F)F)c1)c1cc2cc([N+](=O)[O-])ccc2[nH]1 [Example 227, 5-nitro-N-(2′-(trifluoromethyl)-[1,1′-biphenyl]-3-yl)-1H-indole-2-carboxamide]"
> 10 µM,41.4 µM,> 10 µM,"Cc1c(C(=O)Nc2cccc(-c3ccccc3C(F)(F)F)c2)[nH]c2ccc([N+](=O)[O-])cc12 [Example 228, 3-methyl-5-nitro-N-(2′-(trifluoromethyl)-[1,1′-biphenyl]-3-yl)-1H-indole-2-carboxamide]"
1.4 µM,16.1 µM,5.4 µM,"O=C(Nc1cccc(-c2ccc(F)cc2C(F)(F)F)c1)C1Cc2ccc([N+](=O)[O-])cc2N1 (stereo not drawn) [Example 229, N-(4′-fluoro-2′-(trifluoromethyl)-[1,1′-biphenyl]-3-yl)-6-nitroindoline-2-carboxamide]"
1.1 µM,17.6 µM,2.7 µM,"O=C(Nc1cccc(-c2ccccc2C(F)(F)F)c1)C1Cc2ccc([N+](=O)[O-])cc2N1 (stereo not drawn) [Example 230, 6-nitro-N-(2′-(trifluoromethyl)-[1,1′-biphenyl]-3-yl)indoline-2-carboxamide]"
2.9 µM,19.3 µM,> 10 µM,"O=C(Nc1cccc(-c2ccc(F)cc2F)c1)C1Cc2ccc([N+](=O)[O-])cc2N1 (stereo not drawn) [Example 231, N-(2′,4′-difluoro-[1,1′-biphenyl]-3-yl)-6-nitroindoline-2-carboxamide]"
> 10 µM,20.5 µM,> 10 µM,"O=C(Nc1cccc(-c2ccccc2C(F)(F)F)c1)c1nc2ccc([N+](=O)[O-])cc2s1 [Example 232, 6-nitro-N-(2′-(trifluoromethyl)-[1,1′-biphenyl]-3-yl)benzo[d]thiazole-2-carboxamide]"
> 10 µM,> 50 µM,> 10 µM,"O=C(Nc1cccc(-c2ccc(F)cc2F)c1)c1nc2cc([N+](=O)[O-])ccc2[nH]1 [Example 233, N-(2′,4′-difluoro-[1,1′-biphenyl]-3-yl)-5-nitro-1H-benzo[d]imidazole-2-carboxamide]"
> 10 µM,1.6 µM,1.56 µM,"O=C(Nc1cccc(-c2ccccc2C(F)(F)F)c1)c1nc2cc([N+](=O)[O-])ccc2[nH]1 [Example 234, 5-nitro-N-(2′-(trifluoromethyl)-[1,1′-biphenyl]-3-yl)-1H-benzo[d]imidazole-2-carboxamide]"
> 10 µM,37 µM,> 10 µM,"O=C(Nc1cccc(-c2ccc(F)cc2C(F)(F)F)c1)c1nc2cc([N+](=O)[O-])ccc2[nH]1 [Example 235, N-(4′-fluoro-2′-(trifluoromethyl)-[1,1′-biphenyl]-3-yl)-5-nitro-1H-benzo[d]imidazole-2-carboxamide]"
> 10 µM,30.6 µM,> 10 µM,"O=C(Nc1cccc(-c2ccc(F)cc2C(F)(F)F)c1)c1cc2ccc([N+](=O)[O-])cc2[nH]1 [Example 244, N-(4′-fluoro-2′-(trifluoromethyl)-[1,1′-biphenyl]-3-yl)-6-nitro-1H-indole-2-carboxamide]"
> 10 µM,> 50 µM,3.7 µM,"Cn1c(C(=O)Nc2cccc(-c3ccc(F)cc3F)c2)cc2ccc([N+](=O)[O-])cc21 [Example 247, N-(2′,4′-difluoro-[1,1′-biphenyl]-3-yl)-1-methyl-6-nitro-1H-indole-2-carboxamide]"
6.1 µM,15.7 µM,9.6 µM,"Cn1c(C(=O)Nc2cccc(-c3ccc(F)cc3F)c2)cc2ccc(NS(C)(=O)=O)cc21 [Example 248, N-(2′,4′-difluoro-[1,1′-biphenyl]-3-yl)-1-methyl-6-(methylsulfonamido)-1H-indole-2-carboxamide]"
> 10 µM,8.4 µM,> 10 µM,"Cn1c(C(=O)Nc2cccc(-c3ccccc3C(F)(F)F)c2)cc2ccc([N+](=O)[O-])cc21 [Example 249, 1-methyl-6-nitro-N-(2′-(trifluoromethyl)-[1,1′-biphenyl]-3-yl)-1H-indole-2-carboxamide]"
> 10 µM,22 µM,> 10 µM,"Cn1c(C(=O)Nc2cccc(-c3ccccc3C(F)(F)F)c2)cc2cc([N+](=O)[O-])ccc21 [Example 250, 1-methyl-5-nitro-N-(2′-(trifluoromethyl)-[1,1′-biphenyl]-3-yl)-1H-indole-2-carboxamide]"
> 10 µM,26.7 µM,> 10 µM,"Cc1c(C(=O)Nc2cccc(-c3ccccc3C(F)(F)F)c2)n(CCN2CCOCC2)c2ccc([N+](=O)[O-])cc12 [Example 251, 3-methyl-1-(2-morpholinoethyl)-5-nitro-N-(2′-(trifluoromethyl)-[1,1′-biphenyl]-3-yl)-1H-indole-2-carboxamide]"
> 10 µM,11.4 µM,> 10 µM,"O=C(Nc1cccc(-c2ccccc2C(F)(F)F)c1)c1cc2ccc([N+](=O)[O-])cc2n1CCN1CCOCC1 [Example 252, 1-(2-morpholinoethyl)-6-nitro-N-(2′-(trifluoromethyl)-[1,1′-biphenyl]-3-yl)-1H-indole-2-carboxamide]"
4.7 µM,7.6 µM,8.5 µM,"Cn1c(C(=O)Nc2cccc(-c3ccccc3C(F)(F)F)c2)cc2ccc(NS(C)(=O)=O)cc21 [Example 253, 1-methyl-6-(methylsulfonamido)-N-(2′-(trifluoromethyl)-[1,1′-biphenyl]-3-yl)-1H-indole-2-carboxamide]"
> 10 µM,> 50 µM,> 10 µM,"CC(C)(Oc1ccc2cc(C(=O)Nc3cccc(-c4ccc(F)cc4F)c3)[nH]c2c1)C(=O)O [Example 254, 2-((2-((2′,4′-difluoro-[1,1′-biphenyl]-3-yl)carbamoyl)-1H-indol-6-yl)oxy)-2-methylpropanoic acid]"
> 10 µM,18.1 µM,> 10 µM,"CCOC(=O)COc1ccc2cc(C(=O)Nc3cccc(-c4ccc(F)cc4F)c3)[nH]c2c1 [Example 255, ethyl 2-((2-((2′,4′-difluoro-[1,1′-biphenyl]-3-yl)carbamoyl)-1H-indol-6-yl)oxy)acetate]"
> 10 µM,> 50 µM,> 10 µM,"O=C(O)COc1ccc2cc(C(=O)Nc3cccc(-c4ccc(F)cc4F)c3)[nH]c2c1 [Example 256, 2-((2-((2′,4′-difluoro-[1,1′-biphenyl]-3-yl)carbamoyl)-1H-indol-6-yl)oxy)acetic acid]"
3.5 µM,11 µM,2.8 µM,"CNS(=O)(=O)Nc1ccc2cc(C(=O)Nc3cccc(-c4ccc(F)cc4F)c3)[nH]c2c1 [Example 257, N-(2′,4′-difluoro-[1,1′-biphenyl]-3-yl)-6-((N-methylsulfamoyl)amino)-1H-indole-2-carboxamide]"
2.7 µM,16.3 µM,5.2 µM,"Nc1ccc2[nH]c(C(=O)Nc3cccc(-c4ccccc4C(F)(F)F)c3)cc2c1 [Example 258, 5-amino-N-(2′-(trifluoromethyl)-[1,1′-biphenyl]-3-yl)-1H-indole-2-carboxamide]"
2.4 µM,28.4 µM,2.9 µM,"CS(=O)(=O)Nc1ccc2c(c1)NC(C(=O)Nc1cccc(-c3ccc(F)cc3F)c1)C2 (stereo not drawn) [Example 261, N-(2′,4′-difluoro-[1,1′-biphenyl]-3-yl)-6-(methylsulfonamido)indoline-2-carboxamide]"
